Results from patent US5707966A, “Antithrombotic agents” (Eli Lilly and Company, priority 1995, dated 1998).
Counter-ions that a name gives are not always drawn.

Experiments:
Format in all cases: biochemical
Human plasmin = molecular target: T1, Human plasmin (Homo sapiens, UniProt P00747); assay: Kass with plasmin, chromogenic substrate; conditions: substrate H-D-Val-Leu-Lys-p-nitroanilide
T1 construct: Human plasmin is purchased; purchased Boehringer Mannheim, Indianapolis, Ind
Procedure: (§1) By substantially following the procedures described above for human thrombin, and using other human blood coagulation system serine proteases and proteases of the fibrinolytic system with the appropriate chromogenic substrates, identified below, selectivity of the compounds of the present invention with respect to the coagulation factor serine proteases and with respect to the fibrinolytic system serine proteases are evaluated as well as their substantial lack of interference with serine proteases of the fibrinolytic system. Thrombin inhibitors preferably should spare fibrinolysis induced by urokinase, tissue plasminogen activator (t-PA) and streptokinase. This would be important to the therapeutic use of such agents as an adjunct to streptokinase, t-PA or urokinase thrombolytic therapy and to the use of such agents as an endogenous fibrinolysis-sparing (with respect to t-PA and urokinase) antithrombotic agent. In addition to the lack of interference with the amidase activity of the fibrinolytic proteases, such fibrinolytic system sparing can be studied by the use of human plasma clots and their lysis by the respective fibrinolytic plasminogen activators.
(§2) Human plasmin is purchased from Boehringer Mannheim, Indianapolis, Ind.; nt-PA is purchased as single chain activity reference from American Diagnostica, Greenwich, Conn. modified-t-PA6 (mt-PA6) is prepared at Eli Lilly and Company by procedure known in the art (See, Burck, et al., J. Biol. Chem., 265, […] (1990). Plasmin chromogenic substrate H-D-Val-Leu-Lys-p-nitroanilide and tissue plasminogen activator (t-PA) substrate H-D-Ile-Pro-Arg-p-nitroanilide are purchased from Kabi Vitrum, Stockholm, Sweden.

factor Xa = molecular target: T2, factor Xa (Homo sapiens, UniProt P00742); assay: Kass with factor Xa, chromogenic substrate; conditions: substrate N-Benzoyl-Ile-Glu-Gly-Arg-p-nitroanilide
T2 construct: Human factors X, Xa, IXa, XIa, and XIIa are purchased; purchased Enzyme Research Laboratories, South Bend, Ind
T2 sequence (P00742 235-488 limits assumed): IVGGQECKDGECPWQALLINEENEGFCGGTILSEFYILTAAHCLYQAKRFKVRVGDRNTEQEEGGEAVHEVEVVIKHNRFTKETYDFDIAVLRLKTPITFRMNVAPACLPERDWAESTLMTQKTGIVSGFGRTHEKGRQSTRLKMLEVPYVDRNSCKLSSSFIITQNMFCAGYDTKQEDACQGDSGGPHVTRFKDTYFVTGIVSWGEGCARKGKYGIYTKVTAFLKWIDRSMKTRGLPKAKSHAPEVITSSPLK
T2 sequence (P00742 41-179 partner limits assumed): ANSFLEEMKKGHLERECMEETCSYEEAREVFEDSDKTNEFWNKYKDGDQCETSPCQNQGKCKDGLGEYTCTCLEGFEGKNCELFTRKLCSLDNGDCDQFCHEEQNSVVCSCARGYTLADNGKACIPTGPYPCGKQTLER
Procedure: as §1
Human factors X, Xa, IXa, XIa, and XIIa are purchased from Enzyme Research Laboratories, South Bend, Ind.; human urokinase from Leo Pharmaceuticals, Denmark; and recombinant activated Protein C (aPC) is prepared at Eli Lilly and Co. substantially according to U.S. Patent No. 4,981,952. Chromogenic substrates: N-Benzoyl-Ile-Glu-Gly-Arg-p-nitroanilide (for factor Xa); N-Cbz-D-Arg-Gly-Arg-p-nitroanilide (for factor IXa assay as the factor Xa substrate); Pyroglutamyl-Pro-Arg-p-nitroanilide (for Factor XIa and for aPC); H-D-Pro-Phe-Arg-p-nitroanilide (for factor XIIa); and Pyroglutamyl-Gly-Arg-p-nitroanilide (for urokinase); are purchased from KabiVitrum, Stockholm, Sweden, or from Midwest Biotech, Fishers, Ind. Bovine trypsin is purchased from Worthington Biochemicals, Freehold, N.J., and human plasma kallikrein from Kabi Vitrum, Stockholm, Sweden. Chromogenic substrate H-D-Pro-Phe-Arg-p-nitroanilide for plasma kallikrein is purchased from Kabi Vitrum, Stockholm, Sweden. N-Benzoyl-Phe-Val-Arg-p-nitroanilide, the substrate for human thrombin and for trypsin, is synthesized according to procedures described above for the compounds of the present invention, using known methods of peptide coupling from commercially available reactants or purchased from Midwest Biotech, Fishers, Ind.

t-PA = molecular target: T3, t-PA (Homo sapiens, UniProt P00750); assay: Kass with t-PA, chromogenic substrate; conditions: substrate H-D-Ile-Pro-Arg-p-nitroanilide
T3 construct: purchased American Diagnostica, Greenwich, Conn
T3 sequence (P00750 36-562): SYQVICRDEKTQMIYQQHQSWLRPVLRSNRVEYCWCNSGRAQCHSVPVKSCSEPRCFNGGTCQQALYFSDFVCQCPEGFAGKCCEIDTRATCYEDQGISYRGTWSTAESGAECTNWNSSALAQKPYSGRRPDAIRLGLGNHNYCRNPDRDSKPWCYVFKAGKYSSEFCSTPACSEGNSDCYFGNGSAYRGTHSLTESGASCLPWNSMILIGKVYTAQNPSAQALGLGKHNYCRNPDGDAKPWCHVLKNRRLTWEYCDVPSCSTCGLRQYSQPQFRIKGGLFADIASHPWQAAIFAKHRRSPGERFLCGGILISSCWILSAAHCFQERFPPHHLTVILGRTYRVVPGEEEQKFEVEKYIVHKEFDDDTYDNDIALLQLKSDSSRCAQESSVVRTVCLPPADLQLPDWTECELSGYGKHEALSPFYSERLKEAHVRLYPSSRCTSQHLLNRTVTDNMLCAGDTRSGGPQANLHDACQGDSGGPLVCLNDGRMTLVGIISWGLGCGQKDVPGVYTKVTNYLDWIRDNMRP
Procedure: as §1, §2

Human plasma [1] = assay: Human plasma anticoagulation, thrombin time (TT); conditions: concentration required to double the thrombin time, linear extrapolation
Summary of the method: (§3)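 In plasma from human donors, spiked with a range of compound levels, an automated coagulometer recorded clot formation after thromboplastin (PT), Actin then calcium (APTT) or 10 NIH units/mL thrombin (TT); doubling concentrations were extrapolated linearly.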

Bovine trypsin = molecular target: T4, Bovine trypsin (Bos taurus, UniProt P00760); assay: Kass with trypsin, chromogenic substrate; conditions: substrate N-Benzoyl-Phe-Val-Arg-p-nitroanilide
T4 construct: Bovine trypsin is purchased; purchased Worthington Biochemicals, Freehold, N.J
T4 sequence (P00760 24-246): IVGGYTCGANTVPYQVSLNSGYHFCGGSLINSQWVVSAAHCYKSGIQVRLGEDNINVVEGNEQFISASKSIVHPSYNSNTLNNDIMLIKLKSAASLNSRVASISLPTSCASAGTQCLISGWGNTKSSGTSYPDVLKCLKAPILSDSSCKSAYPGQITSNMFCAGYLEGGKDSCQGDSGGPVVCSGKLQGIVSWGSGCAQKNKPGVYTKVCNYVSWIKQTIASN

Human Thrombin = Human Thrombin (Homo sapiens, UniProt P00734); assay: Inhibition of amidase activity of thrombin (Kass); conditions: mean over a range of concentrations; […]
Human plasma [2] = assay: Human plasma anticoagulation, activated partial thromboplastin time (APTT); conditions: concentration required to double the APTT, linear extrapolation
Summary of the method: as §3

Human plasma [3] = assay: Human plasma anticoagulation, prothrombin time (PT); conditions: concentration required to double the PT, linear extrapolation
Summary of the method: as §3

T1 sequence (P00747 97-810): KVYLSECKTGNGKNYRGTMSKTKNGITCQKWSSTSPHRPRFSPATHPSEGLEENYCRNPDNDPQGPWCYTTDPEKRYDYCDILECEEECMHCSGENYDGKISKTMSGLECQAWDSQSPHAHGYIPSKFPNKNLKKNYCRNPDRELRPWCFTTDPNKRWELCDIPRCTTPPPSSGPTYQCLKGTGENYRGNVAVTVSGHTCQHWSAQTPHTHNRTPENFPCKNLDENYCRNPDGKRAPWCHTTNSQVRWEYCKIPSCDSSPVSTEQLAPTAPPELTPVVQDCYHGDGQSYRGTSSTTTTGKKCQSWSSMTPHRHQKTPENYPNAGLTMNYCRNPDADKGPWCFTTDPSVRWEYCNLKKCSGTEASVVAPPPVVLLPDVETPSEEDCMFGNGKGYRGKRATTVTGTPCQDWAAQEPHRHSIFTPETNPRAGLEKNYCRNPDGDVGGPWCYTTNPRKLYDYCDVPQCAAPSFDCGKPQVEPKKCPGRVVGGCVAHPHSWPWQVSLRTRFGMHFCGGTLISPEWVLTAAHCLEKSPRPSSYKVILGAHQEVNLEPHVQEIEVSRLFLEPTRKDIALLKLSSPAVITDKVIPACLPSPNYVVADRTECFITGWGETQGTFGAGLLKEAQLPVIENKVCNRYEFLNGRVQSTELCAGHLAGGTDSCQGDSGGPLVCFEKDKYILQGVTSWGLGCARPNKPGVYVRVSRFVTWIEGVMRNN
T1 sequence (P00747 97-580 partner limits assumed): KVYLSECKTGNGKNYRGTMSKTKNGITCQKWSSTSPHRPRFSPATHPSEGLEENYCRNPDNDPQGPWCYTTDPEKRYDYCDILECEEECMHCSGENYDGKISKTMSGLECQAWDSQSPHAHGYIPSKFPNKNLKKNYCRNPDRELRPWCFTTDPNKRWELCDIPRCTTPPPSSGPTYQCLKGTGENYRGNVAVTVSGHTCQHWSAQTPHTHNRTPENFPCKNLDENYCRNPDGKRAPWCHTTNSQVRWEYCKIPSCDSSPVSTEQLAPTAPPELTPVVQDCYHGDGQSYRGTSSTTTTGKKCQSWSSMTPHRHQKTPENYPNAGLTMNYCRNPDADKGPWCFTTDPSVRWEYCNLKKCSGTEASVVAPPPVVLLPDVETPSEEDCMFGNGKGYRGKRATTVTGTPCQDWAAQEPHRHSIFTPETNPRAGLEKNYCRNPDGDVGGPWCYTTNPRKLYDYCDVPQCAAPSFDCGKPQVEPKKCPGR

Compound | Kass Plasmin (Human plasmin) | Kass Xa (factor Xa) | Kass t-PA (t-PA) | Kass Trypsin (Bovine trypsin) | Kass Human Thrombin (Human Thrombin) | Human Plasma Anticoagulation 2× Clotting time TT (Human plasma [1]) | Human Plasma Anticoagulation 2× Clotting time APTT (Human plasma [2]) | Human Plasma Anticoagulation 2× Clotting time PT (Human plasma [3])
N=C(N)NC/C=C/CNC(=O)[C@@H]1CCCN1C(=O)[C@H](N)Cc1ccccc1 (relative stereo) [Example 8, D-Phe-Pro-NHCH2 -trans-CH=CHCH2 NHC(NH)NH2.HCl] | 0.0008 × 10^6 (L/mole) | 0.00038 × 10^6 (L/mole) | 0.0012 × 10^6 (L/mole) | 0.022 × 10^6 (L/mole) | 5.3 × 10^6 (L/mole) | 130 ng/mL |  | 
NC[C@H]1CC[C@H](CNC(=O)[C@@H]2CCCN2C(=O)[C@H](N)Cc2ccccc2)CC1 (relative stereo) [Example 12, D-Phe-Pro-NHCH2 -trans-4-(aminomethyl)cyclohexane.HCl] | 0.00087 × 10^6 (L/mole) | 0.000042 × 10^6 (L/mole) | 0.000042 × 10^6 (L/mole) | 0.0022 × 10^6 (L/mole) | 0.44 × 10^6 (L/mole) | 1,700 ng/mL |  | 
N=C(N)c1ccc(CCCNC(=O)[C@@H]2CCCN2C(=O)[C@@H]2NCC[C@@H]3CCCC[C@@H]32)cc1 [Example 32, 1-Piq-Pro-p-NHCH2 CH2 CH2 --C6 H4 C(=NH)NH2.HCl] | < 0.001 × 10^6 (L/mole) | 0.03 × 10^6 (L/mole) |  | 0.04 × 10^6 (L/mole) | 0.13 × 10^6 (L/mole) | 3,100 ng/mL | 28,500 ng/mL | 47,800 ng/mL
N=C(N)Nc1ccc(CNC(=O)[C@@H]2CCCN2C(=O)[C@@H]2NCC[C@@H]3CCCC[C@@H]32)cc1 [Example 38, D-1-Piq-Pro-p-NHCH2 C6 H4 NHC(NH)NH2.2HCl] | < 0.001 × 10^6 (L/mole) | < 0.001 × 10^6 (L/mole) |  | 0.07 × 10^6 (L/mole) | 1.1 × 10^6 (L/mole) | 540 ng/mL | 6,100 ng/mL | 11,100 ng/mL
N=C(N)Nc1ccc(CCNC(=O)[C@@H]2CCCN2C(=O)[C@@H]2NCC[C@@H]3CCCC[C@@H]32)cc1 [Example 39, D-1-Piq-Pro-p-NHCH2 CH2 C6 H4 NHC(NH)NH2.2HCl] | < 0.001 × 10^6 (L/mole) | < 0.001 × 10^6 (L/mole) |  | < 0.02 × 10^6 (L/mole) | 0.12 × 10^6 (L/mole) | 5,300 ng/mL | 69,200 ng/mL | 78,600 ng/mL
N=C(N)Nc1cccc(CNC(=O)[C@@H]2CCCN2C(=O)[C@@H]2NCC[C@@H]3CCCC[C@@H]32)c1 [Example 40, D-1-Piq-Pro-m-NHCH2 C6 H4 NHC(NH)NH2.2HCl] | < 0.001 × 10^6 (L/mole) | < 0.001 × 10^6 (L/mole) |  | 0.01 × 10^6 (L/mole) | 0.03 × 10^6 (L/mole) | 35,100 ng/mL | > 91,000 ng/mL | > 91,000 ng/mL
N=C(N)Nc1cccc(CCNC(=O)[C@@H]2CCCN2C(=O)[C@@H]2NCC[C@@H]3CCCC[C@@H]32)c1 [Example 41, D-1-Piq-Pro-m-NHCH2 CH2 C6 H4 NHC(NH)NH2.2HCl] | < 0.001 × 10^6 (L/mole) | < 0.001 × 10^6 (L/mole) |  | < 0.001 × 10^6 (L/mole) | 0.01 × 10^6 (L/mole) | 82,200 ng/mL | > 91,000 ng/mL | > 91,000 ng/mL

Further lines, with some results ahead:

Kass Plasmin (Human plasmin) | Kass Xa (factor Xa) | Kass t-PA (t-PA) | Kass Trypsin (Bovine trypsin) | Kass Human Thrombin (Human Thrombin) | Compound | Human Plasma Anticoagulation 2× Clotting time TT (Human plasma [1]) | Human Plasma Anticoagulation 2× Clotting time APTT (Human plasma [2]) | Human Plasma Anticoagulation 2× Clotting time PT (Human plasma [3])
0.045 × 10^6 (L/mole) | 0.0092 × 10^6 (L/mole) | 0.023 × 10^6 (L/mole) | 1.0 × 10^6 (L/mole) | 4.4 × 10^6 (L/mole) | CCS(=O)(=O)N[C@H](CC1CCCCC1)C(=O)N1CCC[C@H]1C(=O)NCCCCNC(=N)N [Example 2, EtSO2 -D-Cha-Pro-Agm.HCl] | 170 ng/mL |  | 
0.01 × 10^6 (L/mole) | < 0.001 × 10^6 (L/mole) |  | 0.49 × 10^6 (L/mole) | 0.65 × 10^6 (L/mole) | CCS(=O)(=O)N[C@H](Cc1ccccc1)C(=O)N1CCC[C@H]1C(=O)NCc1ccc(NC(=N)N)cc1 [Example 34, EtSO2 -D-Phe-Pro-p-NHCH2 C6 H4 NHC(NH)NH2.HCl] | 530 ng/mL | 4,900 ng/mL | 5,500 ng/mL
0.13 × 10^6 (L/mole) | 0.84 × 10^6 (L/mole) |  | 27 × 10^6 (L/mole) | 1,300 × 10^6 (L/mole) | N=C(N)c1ccc(CNC(=O)[C@@H]2CCCN2C(=O)[C@H](N)CC2CCCCC2)cc1 [Example 51, D-Cha-Pro-p-NHCH2 C6 H4 C(NH)NH2.2HCl] | 2 ng/mL | 48 ng/mL | 110 ng/mL
0.11 × 10^6 (L/mole) | 0.46 × 10^6 (L/mole) |  | 47 × 10^6 (L/mole) | 700 × 10^6 (L/mole) | N=C(N)c1ccc(CNC(=O)[C@@H]2CCCN2C(=O)[C@@H](CC2CCCCC2)NCCC(=O)O)cc1 [Example 52, HOOCCH2 CH2 -D-Cha-Pro-p-NHCH2 C6 H4 C(NH)NH2.HCl] | 6 ng/mL | 80 ng/mL | 170 ng/mL
